According to US9139557B2, “Carboxamide compounds and their use as calpain inhibitors” (Abbott GmbH & Co. KG, priority 2006, dated 2015):

How the values were obtained:
calpain-I = target: T1, calpain-I (Homo sapiens, UniProt P07384); experiment: Calpain I enzyme inhibition in vitro (kinetic fluorescence assay); assay type: biochemical
T1 construct: calpain-I—isolated from human erythrocytes; purchased Calbiochem 208713; host or cells: human erythrocytes (tissue isolate)
T1 sequence (P07384 2-714 limits assumed): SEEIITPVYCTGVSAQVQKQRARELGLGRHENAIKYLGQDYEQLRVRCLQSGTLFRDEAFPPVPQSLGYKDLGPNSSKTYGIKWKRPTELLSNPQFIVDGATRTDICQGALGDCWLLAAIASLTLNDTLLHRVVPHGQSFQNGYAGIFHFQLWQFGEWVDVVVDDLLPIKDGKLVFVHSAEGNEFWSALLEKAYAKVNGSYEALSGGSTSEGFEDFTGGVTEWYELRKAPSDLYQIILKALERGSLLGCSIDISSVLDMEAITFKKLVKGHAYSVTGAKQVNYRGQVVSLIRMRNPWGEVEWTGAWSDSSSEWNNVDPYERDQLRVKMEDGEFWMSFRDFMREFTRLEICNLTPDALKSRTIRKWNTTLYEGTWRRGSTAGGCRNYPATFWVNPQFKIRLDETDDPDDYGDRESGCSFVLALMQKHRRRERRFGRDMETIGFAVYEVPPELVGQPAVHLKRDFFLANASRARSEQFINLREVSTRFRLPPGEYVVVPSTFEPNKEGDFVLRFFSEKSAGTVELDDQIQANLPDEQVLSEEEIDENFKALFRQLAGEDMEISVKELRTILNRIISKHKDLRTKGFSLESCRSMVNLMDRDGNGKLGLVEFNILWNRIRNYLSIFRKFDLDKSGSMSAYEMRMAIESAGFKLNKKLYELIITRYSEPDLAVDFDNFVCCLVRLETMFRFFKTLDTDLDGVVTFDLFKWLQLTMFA
T1 sequence (P04632 1-268 partner): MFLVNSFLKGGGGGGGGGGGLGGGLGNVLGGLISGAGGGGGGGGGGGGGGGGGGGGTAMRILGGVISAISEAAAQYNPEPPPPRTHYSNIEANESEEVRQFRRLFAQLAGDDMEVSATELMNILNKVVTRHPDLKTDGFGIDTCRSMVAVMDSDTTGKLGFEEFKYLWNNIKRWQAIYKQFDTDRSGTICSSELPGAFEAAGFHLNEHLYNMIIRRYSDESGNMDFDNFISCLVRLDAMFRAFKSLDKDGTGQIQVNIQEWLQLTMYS
Method: Testing for blockade of the corresponding enzymic activities was carried out by means of kinetic fluorescence assays (excitation 390 nm, emission 460 nm).
Apparent Ki values were calculated from the experimentally determined IC50 values by the Cheng-Prussoff relation assuming a reversible competitive enzyme inhibition. The Km values of the substrates used under the assay conditions indicated above were: 90 μM (Z-Phe-Arg-AMC, cathepsin B), 10 μM (Z-Gly-Pro-Arg-AMC, cathepsin K), 2 μM (Z-Phe-Arg-AMC, cathepsin L), and 30 μM (Z-Val-Val-Arg-AMC, cathepsin S).
The indicated Ki values are averages of the inhibition constants calculated on the basis of 2 to 4 independent dose-effect plots.
• 1. Calpain I: • 20 nM calpain-I—isolated from human erythrocytes (Calbiochem #208713), 100 μM Suc-Leu-Tyr-AMC (Bachem #1-1355) as substrate in buffer with 62 mM imidazole, 0.3 mM CaCl2, 0.10% CHAPS, 0.05% BSA, 1 mM DTT at pH 7.3 and room temperature. • 2. Cathepsin B: • 0.25 nM cathepsin B—isolated from human liver (Calbiochem #219362), 100 μM Z-Phe-Arg-AMC (Bachem #1-1160) as substrate 50 mM MES, 2 mM EDTA, 0.05% Brij 35, 2.5 mM L-cysteine, pH 6.0, room temperature. • 3. […]

cathepsin S = target: T2, cathepsin S (Homo sapiens, UniProt P25774); experiment: Cathepsin S enzyme inhibition in vitro (kinetic fluorescence assay); assay type: biochemical; conditions: Ki(cathepsin S)/Ki(calpain) ratio
T2 construct: purchased Calbiochem 219343; host or cells: E. coli
Procedure, shortened: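 Kinetic fluorescence (ex 390/em 460 nm), RT. Calpain-I: 20 nM erythrocyte-derived, 100 μM Suc-Leu-Tyr-AMC, imidazole/CaCl2, pH 7.3. Cathepsins, pH 6.0 MES/EDTA/cysteine: B 0.25 nM liver, 100 μM Z-Phe-Arg-AMC; L 1 nM liver, 2 μM Z-Phe-Arg-AMC; S 0.5 nM recombinant, 20 μM Z-Val-Val-Arg-AMC. Cheng-Prusoff Ki, mean of 2–4 curves.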

T2 sequence (P25774 115-331): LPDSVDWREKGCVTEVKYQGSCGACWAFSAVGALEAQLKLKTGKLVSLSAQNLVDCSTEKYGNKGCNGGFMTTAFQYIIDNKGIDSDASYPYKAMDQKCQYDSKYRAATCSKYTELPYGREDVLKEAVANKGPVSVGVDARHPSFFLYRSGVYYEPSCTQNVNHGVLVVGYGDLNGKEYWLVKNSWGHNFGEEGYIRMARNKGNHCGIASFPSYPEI

In the case of Cl.NC(=O)C(=O)C(Cc1ccccc1)NC(=O)c1cccnc1-n1cnc(-c2ccc(CN3CCOCC3)cc2)c1 (centres unmarked) [Example 26, N-(3-Amino-1-benzyl-2,3-dioxopropyl)-2-{4-[4-(morpholin-4-ylmethyl)phenyl]-1H-imidazol-1-yl}nicotinamide hydrochloride], the Ki (calpain-I) is reported as < 0.04 µM and the “Sel cat. S” value (cathepsin S) is reported as “++ (++ means a Ki(cathepsin S)/Ki(calpain) ratio of ≧100)”.
